In the supplement of paper PMC5662764:
± gives the standard deviation of the averaged measurements.

Assays:
Assay in all cases: normalised growth rate inhibition (GR value) relative to DMSO control (GR (1 = untreated growth, 0 = cytostasis, <0 = cytotoxic)); higher = less growth inhibition
Conditions in all cases: 72 h
SKBR3 = test system: SKBR3
Procedure: (§1)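 Breast cancer cell lines (BT-20, Hs 578T, MCF 10A, MCF7, MDA-MB-231, SK-BR-3) were plated in 384-well plates and treated 24 h later with drugs at six concentrations (0.04-10 µM). Viable cells were counted by Hoechst/dead-cell-stain imaging at 0 and 72 h. Counts were normalised to DMSO controls on the same plate to give the relative cell count and the growth-rate inhibition (GR) value; technical plate triplicates were averaged for each biological replicate.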

MCF10A = test system: MCF10A
Procedure: as §1

MDAMB231 = test system: MDAMB231
Procedure: as §1

MCF7 = test system: MCF7
Procedure: as §1

BT20 = test system: BT20
Procedure: as §1

HS578T = test system: HS578T
Procedure: as §1

| SMILES | normalised growth rate inhibition (SKBR3; 0.04 µM) | normalised growth rate inhibition (SKBR3; 0.12 µM) | normalised growth rate inhibition (SKBR3; 0.37 µM) | normalised growth rate inhibition (SKBR3; 1.11 µM) | normalised growth rate inhibition (SKBR3; 3.33 µM) | normalised growth rate inhibition (SKBR3; 10 µM) | normalised growth rate inhibition (MCF10A; 0.04 µM) | normalised growth rate inhibition (MCF10A; 0.12 µM) | normalised growth rate inhibition (MCF10A; 0.37 µM) | normalised growth rate inhibition (MCF10A; 1.11 µM) | normalised growth rate inhibition (MCF10A; 3.33 µM) | normalised growth rate inhibition (MCF10A; 10 µM) | normalised growth rate inhibition (MDAMB231; 0.04 µM) | normalised growth rate inhibition (MDAMB231; 0.12 µM) | normalised growth rate inhibition (MDAMB231; 0.37 µM) | normalised growth rate inhibition (MDAMB231; 1.11 µM) | normalised growth rate inhibition (MDAMB231; 3.33 µM) | normalised growth rate inhibition (MDAMB231; 10 µM) | normalised growth rate inhibition (MCF7; 0.04 µM) | normalised growth rate inhibition (MCF7; 0.12 µM) | normalised growth rate inhibition (MCF7; 0.37 µM) | normalised growth rate inhibition (MCF7; 1.11 µM) | normalised growth rate inhibition (MCF7; 3.33 µM) | normalised growth rate inhibition (MCF7; 10 µM) | normalised growth rate inhibition (BT20; 0.04 µM) | normalised growth rate inhibition (BT20; 0.12 µM) | normalised growth rate inhibition (BT20; 0.37 µM) | normalised growth rate inhibition (BT20; 1.11 µM) | normalised growth rate inhibition (BT20; 3.33 µM) | normalised growth rate inhibition (BT20; 10 µM) | normalised growth rate inhibition (HS578T; 0.04 µM) | normalised growth rate inhibition (HS578T; 0.12 µM) | normalised growth rate inhibition (HS578T; 0.37 µM) | normalised growth rate inhibition (HS578T; 1.11 µM) | normalised growth rate inhibition (HS578T; 3.33 µM) | normalised growth rate inhibition (HS578T; 10 µM) |
| --- | --- | --- | --- | --- | --- | --- | --- | --- | --- | --- | --- | --- | --- | --- | --- | --- | --- | --- | --- | --- | --- | --- | --- | --- | --- | --- | --- | --- | --- | --- | --- | --- | --- | --- | --- | --- |
| N#CCNC(=O)c1ccc(-c2ccnc(Nc3ccc(N4CCOCC4)cc3)n2)cc1 [CYT387] | 0.841 ± 0.15 | 0.8 ± 0.16 | 0.789 ± 0.12 | 0.687 ± 0.12 | 0.509 ± 0.11 | 0.0674 ± 0.037 | 0.959 ± 0.023 | 0.924 ± 0.032 | 0.868 ± 0.038 | 0.799 ± 0.047 | 0.649 ± 0.1 | 0.185 ± 0.11 | 0.859 ± 0.059 | 0.777 ± 0.053 | 0.678 ± 0.087 | 0.527 ± 0.18 | 0.36 ± 0.28 | -0.112 ± 0.2 | 0.912 ± 0.024 | 0.896 ± 0.098 | 0.83 ± 0.092 | 0.628 ± 0.083 | 0.332 ± 0.2 | 0.0654 ± 0.039 | 0.926 ± 0.072 | 0.871 ± 0.038 | 0.837 ± 0.083 | 0.748 ± 0.046 | 0.576 ± 0.073 | 0.0633 ± 0.1 | 0.931 ± 0.031 | 0.851 ± 0.022 | 0.762 ± 0.024 | 0.638 ± 0.043 | 0.447 ± 0.12 | 0.046 ± 0.14 |
| CS(=O)(=O)N1CCN(Cc2cc3nc(-c4cccc5[nH]ncc45)nc(N4CCOCC4)c3s2)CC1 [GDC-0941] | 0.384 ± 0.11 | 0.283 ± 0.088 | 0.131 ± 0.099 | 0.0555 ± 0.16 | 0.00405 ± 0.15 | -0.0817 ± 0.19 | 0.869 ± 0.15 | 0.792 ± 0.18 | 0.625 ± 0.21 | 0.427 ± 0.14 | 0.289 ± 0.087 | 0.102 ± 0.038 | 0.784 ± 0.092 | 0.797 ± 0.069 | 0.715 ± 0.011 | 0.676 ± 0.056 | 0.644 ± 0.053 | 0.372 ± 0.1 | 0.331 ± 0.1 | 0.176 ± 0.079 | 0.0196 ± 0.047 | -0.00416 ± 0.0071 | -0.0358 ± 0.013 | -0.081 ± 0.069 | 0.717 ± 0.053 | 0.689 ± 0.067 | 0.502 ± 0.17 | 0.258 ± 0.19 | 0.0678 ± 0.098 | -0.056 ± 0.052 | 0.779 ± 0.032 | 0.675 ± 0.031 | 0.568 ± 0.088 | 0.466 ± 0.1 | 0.408 ± 0.096 | 0.263 ± 0.077 |
| COc1cc(N2CCC(C(N)=O)CC2)ccc1Nc1nc(N)c(Cl)c(Nc2ccccc2S(=O)(=O)C(C)C)n1 [HG-5-88-01] | 0.548 ± 0.13 | 0.691 ± 0.1 | 0.678 ± 0.073 | 0.699 ± 0.08 | 0.641 ± 0.17 | 0.133 ± 0.15 | 0.933 ± 0.075 | 0.879 ± 0.09 | 0.766 ± 0.14 | 0.709 ± 0.16 | 0.627 ± 0.2 | 0.452 ± 0.11 | 0.794 ± 0.12 | 0.861 ± 0.12 | 0.791 ± 0.11 | 0.796 ± 0.14 | 0.783 ± 0.17 | 0.451 ± 0.089 | 0.635 ± 0.082 | 0.602 ± 0.04 | 0.493 ± 0.081 | 0.364 ± 0.071 | 0.208 ± 0.11 | -0.0672 ± 0.054 | 0.747 ± 0.087 | 0.921 ± 0.066 | 0.937 ± 0.039 | 0.887 ± 0.022 | 0.846 ± 0.048 | 0.404 ± 0.013 | 0.942 ± 0.016 | 0.933 ± 0.04 | 0.885 ± 0.015 | 0.8637 ± 0.0081 | 0.839 ± 0.022 | 0.664 ± 0.034 |
